Data as given in US20250230138A1, “COMPOUNDS HAVING A T-STRUCTURE FORMED BY AT LEAST FOUR CYCLES FOR USE IN THE TREATMENT OF CANCER AND OTHER INDICATIONS” (TheRas, Inc., priority 2022, published 2025).
Read-outs that look alike come from different tables or passages of the source.

Columns and labels:
[1] = target: Cys242 in human PIK3CA (157-299) (Homo sapiens (Human), UniProt P42336); assay: Covalent modification assay using MALDI-TOF MS; format: biochemical; details: 4 h reaction time point; 3.33 μM protein target, 1:7.5 protein to compound ratio (compounds 1-852)
Sequence of Cys242 in human PIK3CA (157-299) (P42336 157-299): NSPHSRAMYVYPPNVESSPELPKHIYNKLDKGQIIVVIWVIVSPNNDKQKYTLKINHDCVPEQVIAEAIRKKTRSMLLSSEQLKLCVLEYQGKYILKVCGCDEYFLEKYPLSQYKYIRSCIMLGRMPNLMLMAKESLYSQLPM
In short: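 PIK3CA (157-299) at 3.33 μM or 1 μM in 20 mM HEPES, 150 mM NaCl, 2 mM MgCl2, pH 7.3 was incubated with compound (from 10 mM DMSO stocks) in the dark at room temperature for 15 min, 30 min, 2 h or 4 h. Linear-mode MALDI-TOF peak heights gave percent modification.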

pAKT in BT474 cells = assay: Cell-based pAKT HTRF assay in BT474 cells; details: BT474 cells, 4 hr incubation, Compounds 10-999, read-out: pAKT inhibition IC50 in BT474 cells
In short: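 Compound titration: 3 μM downward in 3-fold steps, nine points, 4 hr on cells. Detection: lysis, then d2 plus Eu Cryptate antibody mix, room-temperature incubation of 4–24 h, and time-resolved fluorescence read at 615 nm.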

| SMILES | IC50 (pAKT in BT474 cells) [nM] | IC50 (pAKT in BT474 cells; Homo sapiens, BT-474) [nM] | % of modification [1] |
| --- | --- | --- | --- |
| C=CC(=O)N1Cc2cc(-c3nc(-c4ccc5ncn(C)c5c4)c4ccsc4c3-c3c(F)cc(F)cc3O[C@H](C)CO)nn2C[C@H]1C [Compound 611] | 100 to 1000 | – | D (percent of modification <25%) |
| C=CC(=O)N1CCn2nc(-c3nc(-c4ccc5c(c4)CNC5=O)c4ccsc4c3-c3c(F)cc(F)cc3OCCOC)cc2[C@H]1C [Compound 617, 5-((S)-6-((R)-5-acryloyl-4-methyl-4,5,6,7-tetrahydropyrazolo[1,5-a]pyrazin-2-yl)-7-(2,4-difluoro-6-(2-methoxyethoxy)phenyl)thieno[3,2-c]pyridin-4-yl)isoindolin-1-one] | < 100 | – | A (percent of modification of PIK3CA protein ≥75%) |
| C=CC(=O)N1Cc2cc(-c3nc(-c4cnnc(C)c4)c4ccsc4c3-c3c(F)cc(F)cc3OCCOC)nn2C[C@H]1C [Compound 633] | 1000 to 3000 | – | D (percent of modification <25%) |
| C=CC(=O)N1Cc2cc(-c3nc(-c4ccc5c(c4)CCN(C)C5)c4ccsc4c3-c3c(F)cc(F)cc3OC(CF)CF)nn2C[C@H]1C [Compound 634, 1-[(6R)-2-[7-[2,4-difluoro-6-[2-fluoro-1-(fluoromethyl)ethoxy]phenyl]-4-(2-methyl-3,4-dihydro-1H-isoquinolin-6-yl)thieno[3,2-c]pyridin-6-yl]-6-methyl-6,7-dihydro-4H-pyrazolo[1,5-a]pyrazin-5-yl]prop-2-en-1-one] | – | < 100 | A (percent of modification of PIK3CA protein ≥75%) |
| C=CC(=O)N1Cc2cc(-c3nc(-c4cn(C)cn4)c4ccsc4c3-c3c(F)cc(F)cc3OCC(C)O)nn2C(C)C1 (centres unmarked) [Compound 639] | < 100 | – | A (percent of modification of PIK3CA protein ≥75%) |
| C=CC(=O)N1CCn2nc(-c3nc(-c4cnn(C)c4)c4ccsc4c3-c3c(F)cc(F)cc3OCCO)cc2[C@@H]1C [Compound 640] | < 100 | – | A (percent of modification of PIK3CA protein ≥75%) |
| C=CC(=O)N1CCn2nc(-c3nc(-c4cnn(C)c4)c4ccsc4c3-c3c(F)cc(F)cc3OCCO)cc2[C@H]1C [Compound 641] | 100 to 1000 | – | C (25%≤percent of modification <50%) |
| C=CC(=O)N1Cc2cc(-c3nc(-c4ccc5nncn5c4)c4ccsc4c3-c3c(F)cc(F)cc3OCC(C)O)nn2C(C)C1 (centres unmarked) [Compound 643] | < 100 | – | A (percent of modification of PIK3CA protein ≥75%) |
| C=CC(=O)N1CCn2nc(-c3nc(-c4ccc5nn(C)cc5c4)c4ccsc4c3-c3c(F)cc(F)cc3OC[C@@H](C)O)cc2[C@@H]1C [Compound 646] | < 100 | – | A (percent of modification of PIK3CA protein ≥75%) |
| C=CC(=O)N1CCn2nc(-c3nc(-c4cnn(C)c4)c4ccsc4c3-c3c(F)cc(F)cc3OCCOC)cc2[C@@H]1C [Compound 649] | < 100 | – | A (percent of modification of PIK3CA protein ≥75%) |
| C=CC(=O)N1CCn2nc(-c3nc(-c4ccc5oc(C)nc5c4)c4ccsc4c3-c3c(F)cc(F)cc3OC[C@@H](C)O)cc2[C@@H]1C [Compound 655] | < 100 | – | A (percent of modification of PIK3CA protein ≥75%) |
| C=CC(=O)N1Cc2cc(-c3nc(-c4ccc5nn(C)cc5c4)c4ccsc4c3-c3c(F)cc(F)cc3OCCOC)nn2C[C@H]1C [Compound 668, 1-((R)-2-((S)-7-(2,4-difluoro-6-(2-methoxyethoxy)phenyl)-4-(2-methyl-2H-indazol-5-yl)thieno[3,2-c]pyridin-6-yl)-6-methyl-6,7-dihydropyrazolo[1,5-a]pyrazin-5(4H)-yl)prop-2-en-1-one] | < 100 | – | A (percent of modification of PIK3CA protein ≥75%) |
| C=CC(=O)N1Cc2cc(-c3nc(-c4ccc5c(c4)ncn5C)c4ccsc4c3-c3c(F)cc(F)cc3OCCOC)nn2C[C@H]1C [Compound 669] | < 100 | – | A (percent of modification of PIK3CA protein ≥75%) |
| C=CC(=O)N1Cc2cc(-c3nc(-c4cncc(C#N)c4)c4ccsc4c3-c3c(F)cc(F)cc3OCCOC)nn2C[C@H]1C [Compound 670] | < 100 | – | A (percent of modification of PIK3CA protein ≥75%) |

The next lines start with results.

| IC50 (pAKT in BT474 cells) [nM] | IC50 (pAKT in BT474 cells; Homo sapiens, BT-474) [nM] | SMILES | % of modification [1] |
| --- | --- | --- | --- |
| < 100 | – | C=CC(=O)N1CCn2nc(-c3nc(-c4ccc5nn(C)cc5c4)c4ccsc4c3-c3c(F)cc(F)cc3OCCO)cc2[C@@H]1C [Compound 644] | A (percent of modification of PIK3CA protein ≥75%) |
| < 100 | – | C=CC(=O)N1CCn2nc(-c3nc(-c4ccc5ncn(C)c5c4)c4ccsc4c3-c3c(F)cc(F)cc3OCCO)cc2[C@@H]1C [Compound 645] | A (percent of modification of PIK3CA protein ≥75%) |
| < 100 | – | C=CC(=O)N1CCn2nc(-c3nc(-c4ccc5ncn(C)c5c4)c4ccsc4c3-c3c(F)cc(F)cc3OC[C@@H](C)O)cc2[C@@H]1C [Compound 647] | A (percent of modification of PIK3CA protein ≥75%) |
| < 100 | – | C=CC(=O)N1CCn2nc(-c3nc(-c4ccc5nn(C)cc5c4)c4ccsc4c3-c3c(F)cc(F)cc3OCCO)cc2[C@H]1C [Compound 650] | C (25%≤percent of modification <50%) |
| < 100 | – | C=CC(=O)N1CCn2nc(-c3nc(-c4ccc5c(c4)ncn5C)c4ccsc4c3-c3c(F)cc(F)cc3OCCO)cc2[C@H]1C [Compound 651] | C (25%≤percent of modification <50%) |
| < 100 | – | C=CC(=O)N1CCn2nc(-c3nc(-c4ccc5c(cnn5C)c4)c4ccsc4c3-c3c(F)cc(F)cc3OCCO)cc2[C@H]1C [Compound 652] | C (25%≤percent of modification <50%) |
| < 100 | – | C=CC(=O)N1CCn2nc(-c3nc(-c4ccc5ncn(C)c5c4)c4ccsc4c3-c3c(F)cc(F)cc3OCCO)cc2[C@H]1C [Compound 653] | B (50%<percent of modification <75%) |
| < 100 | – | C=CC(=O)N1CCn2nc(-c3nc(-c4ccc5oc(C)nc5c4)c4ccsc4c3-c3c(F)cc(F)cc3OCCO)cc2[C@@H]1C [Compound 654] | A (percent of modification of PIK3CA protein ≥75%) |
| 100 to 1000 | – | C=CC(=O)N1CCn2nc(-c3nc(-c4ccc5cnncc5c4)c4ccsc4c3-c3c(F)cc(F)cc3OCCO)cc2C1C (centres unmarked) [Compound 660] | C (25%≤percent of modification <50%) |
| < 100 | – | C=CC(=O)N1CCn2nc(-c3nc(-c4ccc5c(cnn5C)c4)c4ccsc4c3-c3c(F)cc(F)cc3OCCO)cc2[C@@H]1C [Compound 663, 1-((S)-2-((S)-7-(2,4-difluoro-6-(2-hydroxyethoxy)phenyl)-4-(1-methyl-1H-indazol-5-yl)thieno[3,2-c]pyridin-6-yl)-4-methyl-6,7-dihydropyrazolo[1,5-a]pyrazin-5(4H)-yl)prop-2-en-1-one] | A (percent of modification of PIK3CA protein ≥75%) |
| < 100 | – | C=CC(=O)N1CCn2nc(-c3nc(-c4ccc5c(c4)ncn5C)c4ccsc4c3-c3c(F)cc(F)cc3OCCO)cc2[C@@H]1C [Compound 664, 1-((S)-2-((S)-7-(2,4-difluoro-6-(2-hydroxyethoxy)phenyl)-4-(1-methyl-1H-benzo[d]imidazol-5-yl)thieno[3,2-c]pyridin-6-yl)-4-methyl-6,7-dihydropyrazolo[1,5-a]pyrazin-5(4H)-yl)prop-2-en-1-one] | A (percent of modification of PIK3CA protein ≥75%) |
